Publication PMC9574855 (Journal of Medicinal Chemistry, 2022)

Experiments:
403 WT human kinases = experiment: DiscoverX scanMAX kinome-wide selectivity at 1 μM; assay type: binding
[1] = tested on: His6-SARS-CoV-2 spike protein uptake by HEK293T-ACE2 cells; experiment: Spike uptake assay in HEK293T-ACE2 cells; assay type: cell-based, human; conditions: 1 μM
MHV-nLuc virus = experiment: microbe, parasite or virus in culture; assay type: cell-based, mouse hepatitis virus (MHV); conditions: for inhibition of viral replication (MHV-nLuc), in words: DBT cells; for IC50: Murine coronavirus, read-out: MHV replication pIC50 (converted)
[2] = tested on: lentivirus pseudotyped with the SARS-CoV-2 spike glycoprotein; assay type: cell-based; conditions: Calu-3 cells, 1 μM
[3] = tested on: small panel of understudied kinases; experiment: Eurofins enzymatic profiling in targeted kinase panel; assay type: biochemical, human; conditions: 1 μM, Table S2 panel
SH-SY5Y cells = experiment: Lysosomal staining; assay type: cell-based, human; conditions: 5 μM, 24 h
DBT cells = experiment: LDH cell viability assay in DBT cells; assay type: cell-based, mouse; conditions: up to 10 μM
PIKfyve [4] = target: T1, PIKfyve (Homo sapiens, UniProt Q9Y2I7); experiment: biochemical; assay type: biochemical
bald GFP lentivirus = assay type: cell-based; conditions: Calu-3 cells, 1 μM
MYLK4 = target: T2, MYLK4 (Homo sapiens, UniProt Q86YV6); experiment: NanoBRET assay; assay type: cell-based
T2 sequence (Q86YV6 1-388): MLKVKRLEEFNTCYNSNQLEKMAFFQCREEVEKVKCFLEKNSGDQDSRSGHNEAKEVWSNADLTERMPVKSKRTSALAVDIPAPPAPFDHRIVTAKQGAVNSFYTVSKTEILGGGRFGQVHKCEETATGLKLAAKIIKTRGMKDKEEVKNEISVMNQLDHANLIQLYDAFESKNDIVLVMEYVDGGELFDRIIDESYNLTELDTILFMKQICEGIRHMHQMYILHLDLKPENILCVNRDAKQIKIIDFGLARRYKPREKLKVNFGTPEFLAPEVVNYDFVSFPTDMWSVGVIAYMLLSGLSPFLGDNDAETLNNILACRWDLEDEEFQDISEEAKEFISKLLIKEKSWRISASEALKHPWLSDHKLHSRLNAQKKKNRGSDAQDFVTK

[5] = tested on: His6-SARS-CoV-2 spike protein uptake by Caco-2 cells; experiment: Spike uptake assay in Caco-2 cells; assay type: cell-based; conditions: 1 μM
PIKfyve [6] = target: T1, PIKfyve; experiment: cell-based
[7] = tested on: His6-SARS-CoV-2 spike protein uptake by Calu-3 cells; experiment: Spike uptake assay in Calu-3 cells; assay type: cell-based; conditions: 1 μM
SARS-CoV-2-nLuc = experiment: microbe, parasite or virus in culture; assay type: cell-based
A549-ACE2 cells = conditions: LDH assay
[8] = PIKfyve NB IC50, NanoBRET, HEK293 cells

T1 sequence (Q9Y2I7 whole entry): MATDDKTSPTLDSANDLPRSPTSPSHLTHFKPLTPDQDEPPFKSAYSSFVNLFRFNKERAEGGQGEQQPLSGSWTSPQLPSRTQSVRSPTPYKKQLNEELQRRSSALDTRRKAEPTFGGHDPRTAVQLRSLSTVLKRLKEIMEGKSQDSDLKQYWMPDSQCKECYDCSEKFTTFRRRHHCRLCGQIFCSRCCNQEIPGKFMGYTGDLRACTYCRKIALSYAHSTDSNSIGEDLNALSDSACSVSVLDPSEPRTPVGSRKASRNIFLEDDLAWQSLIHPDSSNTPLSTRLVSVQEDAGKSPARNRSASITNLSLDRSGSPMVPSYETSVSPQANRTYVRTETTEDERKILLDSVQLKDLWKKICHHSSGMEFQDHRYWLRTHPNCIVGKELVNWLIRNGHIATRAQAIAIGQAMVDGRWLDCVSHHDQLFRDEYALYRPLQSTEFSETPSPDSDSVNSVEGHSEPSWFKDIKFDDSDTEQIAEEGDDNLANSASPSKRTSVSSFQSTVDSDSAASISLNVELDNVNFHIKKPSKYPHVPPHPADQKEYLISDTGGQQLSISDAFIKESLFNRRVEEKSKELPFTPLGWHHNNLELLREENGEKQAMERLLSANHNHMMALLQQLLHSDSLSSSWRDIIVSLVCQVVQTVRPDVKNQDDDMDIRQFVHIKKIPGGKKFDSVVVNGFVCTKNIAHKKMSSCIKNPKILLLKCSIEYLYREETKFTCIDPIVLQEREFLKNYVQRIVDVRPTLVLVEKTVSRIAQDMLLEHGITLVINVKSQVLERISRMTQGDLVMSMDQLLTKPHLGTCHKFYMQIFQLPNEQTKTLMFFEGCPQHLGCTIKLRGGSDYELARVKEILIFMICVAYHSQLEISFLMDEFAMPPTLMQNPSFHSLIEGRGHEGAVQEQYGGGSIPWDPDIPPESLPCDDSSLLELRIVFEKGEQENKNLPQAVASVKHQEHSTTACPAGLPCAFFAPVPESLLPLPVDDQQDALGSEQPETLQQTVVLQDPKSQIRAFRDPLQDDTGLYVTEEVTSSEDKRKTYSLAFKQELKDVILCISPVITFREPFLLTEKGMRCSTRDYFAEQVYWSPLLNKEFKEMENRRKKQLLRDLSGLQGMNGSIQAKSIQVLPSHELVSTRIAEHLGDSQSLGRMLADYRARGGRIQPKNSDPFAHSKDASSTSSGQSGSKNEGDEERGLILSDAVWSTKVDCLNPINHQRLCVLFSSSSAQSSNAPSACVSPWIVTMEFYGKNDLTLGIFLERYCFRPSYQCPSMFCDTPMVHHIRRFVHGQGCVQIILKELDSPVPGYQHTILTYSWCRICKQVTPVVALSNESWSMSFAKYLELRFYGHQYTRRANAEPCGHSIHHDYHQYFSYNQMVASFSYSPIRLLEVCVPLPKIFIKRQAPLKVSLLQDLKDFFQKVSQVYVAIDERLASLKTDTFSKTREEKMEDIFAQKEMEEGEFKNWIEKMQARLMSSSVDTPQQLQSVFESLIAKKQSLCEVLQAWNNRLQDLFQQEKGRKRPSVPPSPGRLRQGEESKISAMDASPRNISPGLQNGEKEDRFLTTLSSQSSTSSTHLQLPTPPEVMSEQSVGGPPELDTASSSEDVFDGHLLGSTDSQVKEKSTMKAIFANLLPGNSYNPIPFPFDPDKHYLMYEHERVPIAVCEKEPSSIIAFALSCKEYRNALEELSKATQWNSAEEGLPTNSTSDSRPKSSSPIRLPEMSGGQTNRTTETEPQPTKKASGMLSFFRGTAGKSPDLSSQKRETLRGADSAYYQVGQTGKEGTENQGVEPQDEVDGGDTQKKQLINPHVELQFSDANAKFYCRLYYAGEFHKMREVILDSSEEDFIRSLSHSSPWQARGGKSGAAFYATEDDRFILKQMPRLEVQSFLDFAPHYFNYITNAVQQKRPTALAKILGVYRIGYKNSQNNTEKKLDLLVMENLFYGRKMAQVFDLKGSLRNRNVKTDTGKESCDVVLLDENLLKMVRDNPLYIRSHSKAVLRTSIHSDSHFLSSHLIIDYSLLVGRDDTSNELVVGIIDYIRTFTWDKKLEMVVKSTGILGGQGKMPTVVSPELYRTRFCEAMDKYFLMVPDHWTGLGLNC

CC(C)(O)C#Cc1ccc2[nH]c3c(c2c1)-c1nc(N)ncc1CCC3 [AMG28, 4-(2-Amino-5,6,7,8-tetrahydropyrimido[4′,5′:3,4]cyclohepta[1,2-b]indol-11-yl)-2-methylbut-3-yn-2-ol, reference compound]
# scanMAX kinases with PoC < 10 (403 WT human kinases): 21

CCC(=O)Nc1cc(Nc2cc(NC3CC3)n3ncc(C#N)c3n2)ccc1C [SGC-CK2-1, reference compound]
His6-SARS-CoV-2 spike protein uptake [1]: efficiently decreased spike protein uptake

CC(C)(O)C#Cc1ccc2[nH]c3c(c2c1)-c1nc(N)ncc1CC3 [compound 1, 4-(2-Amino-6,7-dihydro-5H-pyrimido[5,4-c]carbazol-10-yl)-2-methylbut-3-yn-2-ol]
# scanMAX kinases with PoC < 10 (403 WT human kinases): 20

CC(C)(O)C#Cc1ccc2[nH]c3c(c2c1)-c1nc(N)ncc1CCCC3 [compound 2, 4-(2-Amino-6,7,8,9-tetrahydro-5H-pyrimido[4′,5′:3,4]cycloocta[1,2-b]indol-12-yl)-2-methylbut-3-yn-2-ol]
# scanMAX kinases with PoC < 10 (403 WT human kinases): 3

CC(C)(O)C#Cc1ccc2[nH]cc(-c3ccnc(N)n3)c2c1 [compound 3, 4-(3-(2-Aminopyrimidin-4-yl)-1H-indol-5-yl)-2-methylbut-3-yn-2-ol]
# scanMAX kinases with PoC < 10 (403 WT human kinases): 34

Nc1ncc2c(n1)-c1c([nH]c3ccc(C#Cc4ccncc4)cc13)CC2 [compound 4, 10-(Pyridin-4-ylethynyl)-6,7-dihydro-5H-pyrimido[5,4-c]carbazol-2-amine]
# scanMAX kinases with PoC < 10 (403 WT human kinases): 1

Nc1ncc2c(n1)-c1c([nH]c3ccc(C#Cc4ccncc4)cc13)CCC2 [compound 5, 11-(Pyridin-4-ylethynyl)-5,6,7,8-tetrahydropyrimido[4′,5′:3,4]cyclohepta[1,2-b]indol-2-amine]
# scanMAX kinases with PoC < 10 (403 WT human kinases): 5

Nc1ncc2c(n1)-c1c([nH]c3ccc(C#Cc4ccncc4)cc13)CCCC2 [compound 6, 12-(Pyridin-4-ylethynyl)-6,7,8,9-tetrahydro-5H-pyrimido[4′,5′:3,4]cycloocta[1,2-b]indol-2-amine]
# scanMAX kinases with PoC < 10 (403 WT human kinases): 0

Nc1ncc2c(n1)-c1c([nH]c3ccc(-c4ccc(F)cc4)cc13)CC2 [compound 7, 10-(4-Fluorophenyl)-6,7-dihydro-5H-pyrimido[5,4-c]carbazol-2-amine]
# scanMAX kinases with PoC < 10 (403 WT human kinases): 3

Nc1ncc2c(n1)-c1c([nH]c3ccc(-c4ccc(F)cc4)cc13)CCC2 [compound 8, 11-(4-Fluorophenyl)-5,6,7,8-tetrahydropyrimido[4′,5′:3,4]cyclohepta[1,2-b]indol-2-amine]
inhibition of viral replication (MHV-nLuc), in words (MHV-nLuc virus): inhibited viral replication | His6-SARS-CoV-2 spike protein uptake [1]: significantly reduced spike protein uptake | entry of lentivirus pseudotyped with SARS-CoV-2 spike glycoprotein [2]: inhibition of pseudoviral entry | highest inhibition of any kinase in the targeted enzymatic panel [3]: ≤ 55% | vacuoles in LysoTracker-stained cells (SH-SY5Y cells): vacuoles are present | # scanMAX kinases with PoC < 10 (403 WT human kinases): 2 | effect on cell viability in DBT cells (DBT cells): no significant effect on cell viability up to 10 μM | selectivity over all other kinases evaluated (PIKfyve [4]; versus PIKfyve enzymatic and NanoBRET IC50 values): > 415 fold | entry of bald lentivirus (bald GFP lentivirus): entry of bald lentivirus was not impacted

Nc1ncc2c(n1)-c1c([nH]c3ccc(-c4ccc(F)cc4)cc13)CCCC2 [compound 9, 12-(4-Fluorophenyl)-6,7,8,9-tetrahydro-5H-pyrimido[4′,5′:3,4]cycloocta[1,2-b]indol-2-amine]
# scanMAX kinases with PoC < 10 (403 WT human kinases): 2

CC(C)C(O)C#Cc1ccc2[nH]c3c(c2c1)-c1nc(N)ncc1CC3 (stereo not shown) [compound 10, 1-(2-Amino-6,7-dihydro-5H-pyrimido[5,4-c]carbazol-10-yl)-4-methylpent-1-yn-3-ol]
# scanMAX kinases with PoC < 10 (403 WT human kinases): 11

CC(C)C(O)C#Cc1ccc2[nH]c3c(c2c1)-c1nc(N)ncc1CCC3 (stereo not shown) [compound 11, 1-(2-Amino-5,6,7,8-tetrahydropyrimido[4′,5′:3,4]cyclohepta[1,2-b]indol-11-yl)-4-methylpent-1-yn-3-ol]
# scanMAX kinases with PoC < 10 (403 WT human kinases): 7

Cn1cc(-c2ccc3[nH]c4c(c3c2)-c2nc(N)ncc2CC4)cn1 [compound 12, 10-(1-Methyl-1H-pyrazol-4-yl)-6,7-dihydro-5H-pyrimido[5,4-c]carbazol-2-amine]
# scanMAX kinases with PoC < 10 (403 WT human kinases): 7

Cn1cc(-c2ccc3[nH]c4c(c3c2)-c2nc(N)ncc2CCC4)cn1 [compound 13, 11-(1-Methyl-1H-pyrazol-4-yl)-5,6,7,8-tetrahydropyrimido[4′,5′:3,4]cyclohepta[1,2-b]indol-2-amine]
# scanMAX kinases with PoC < 10 (403 WT human kinases): 8

CN(C)CC#Cc1ccc2[nH]c3c(c2c1)-c1nc(N)ncc1CCC3 [compound 17, 11-(3-(Dimethylamino)prop-1-yn-1-yl)-5,6,7,8-tetrahydropyrimido[4′,5′:3,4]cyclohepta[1,2-b]indol-2-amine]
His6-SARS-CoV-2 spike protein uptake [1]: significantly reduced spike protein uptake | IC50 (MYLK4): 265 nM | His6-SARS-CoV-2 spike protein uptake [5]: efficiently reduced spike protein uptake | entry of lentivirus pseudotyped with SARS-CoV-2 spike glycoprotein [2]: inhibition of pseudoviral entry | vacuoles in LysoTracker-stained cells (SH-SY5Y cells): vacuoles are present | effect on cell viability in DBT cells (DBT cells): no significant effect on cell viability up to 10 μM | IC50 (PIKfyve [6]; PIKfyve NanoBRET IC50, bound stated with SGC probe criteria): < 1000 nM | His6-SARS-CoV-2 spike protein uptake [7]: efficiently reduced spike protein uptake | IC50 (PIKfyve [4]): < 100 nM | entry of bald lentivirus (bald GFP lentivirus): entry of bald lentivirus was not impacted

COC(C)(C)C#Cc1ccc2[nH]c3c(c2c1)-c1nc(N)ncc1CCC3 [compound 20, 11-(3-Methoxy-3-methylbut-1-yn-1-yl)-5,6,7,8-tetrahydropyrimido[4′,5′:3,4]cyclohepta[1,2-b]indol-2-amine]
# scanMAX kinases with PoC < 10 (403 WT human kinases): 11–14

CC(O)C#Cc1ccc2[nH]c3c(c2c1)-c1nc(N)ncc1CCC3 (stereo not shown) [compound 21, 4-(2-Amino-5,6,7,8-tetrahydropyrimido[4′,5′:3,4]cyclohepta[1,2-b]indol-11-yl)but-3-yn-2-ol]
IC50 (PIKfyve [6]; [8]): < 20 nM

CC(C)(C#Cc1ccc2[nH]c3c(c2c1)-c1nc(N)ncc1CCC3)CO [compound 23, 4-(2-Amino-5,6,7,8-tetrahydropyrimido[4′,5′:3,4]cyclohepta[1,2-b]indol-11-yl)-2,2-dimethylbut-3-yn-1-ol]
# scanMAX kinases with PoC < 10 (403 WT human kinases): 11–14

CC(C)(O)CC#Cc1ccc2[nH]c3c(c2c1)-c1nc(N)ncc1CCC3 [compound 24, 5-(2-Amino-5,6,7,8-tetrahydropyrimido[4′,5′:3,4]cyclohepta[1,2-b]indol-11-yl)-2-methylpent-4-yn-2-ol]
# scanMAX kinases with PoC < 10 (403 WT human kinases): 11–14

CCC(C)(O)C#Cc1ccc2[nH]c3c(c2c1)-c1nc(N)ncc1CCC3 (stereo not shown) [compound 25, 1-(2-Amino-5,6,7,8-tetrahydropyrimido[4′,5′:3,4]cyclohepta[1,2-b]indol-11-yl)-3-methylpent-1-yn-3-ol]
IC50 (PIKfyve [6]; [8]): < 20 nM

CCC(O)(C#Cc1ccc2[nH]c3c(c2c1)-c1nc(N)ncc1CCC3)CC [compound 26, 1-(2-Amino-5,6,7,8-tetrahydropyrimido[4′,5′:3,4]cyclohepta[1,2-b]indol-11-yl)-3-ethylpent-1-yn-3-ol]
IC50 (MHV-nLuc virus): 74.1 nM | IC50 (SARS-CoV-2-nLuc; Severe acute respiratory syndrome coronavirus 2, A549-ACE2, 46 h, read-out: SARS-CoV-2 replication IC50): 23.9 nM | IC50 (PIKfyve [6]; [8]): < 20 nM

Cn1cncc1C#Cc1ccc2[nH]c3c(c2c1)-c1nc(N)ncc1CCCC3 [compound 27, 12-((1-Methyl-1H-imidazol-5-yl)ethynyl)-6,7,8,9-tetrahydro-5H-pyrimido[4′,5′:3,4]cycloocta[1,2-b]indol-2-amine]
# scanMAX kinases with PoC < 10 (403 WT human kinases): 0

CN(C)CC#Cc1ccc2[nH]c3c(c2c1)-c1nc(N)ncc1CCCC3 [compound 29, 12-(3-(Dimethylamino)prop-1-yn-1-yl)-6,7,8,9-tetrahydro-5H-pyrimido[4′,5′:3,4]cycloocta[1,2-b]indol-2-amine]
# scanMAX kinases with PoC < 10 (403 WT human kinases): 0

Nc1ncc2c(n1)-c1c([nH]c3ccc(C4CC4)cc13)CCCC2 [compound 30, 12-Cyclopropyl-6,7,8,9-tetrahydro-5H-pyrimido[4′,5′:3,4]cycloocta[1,2-b]indol-2-amine]
toxicity to A549-ACE2 cells (A549-ACE2 cells): did not inhibit SARS-CoV-2 replication or elicit any toxicity | inhibition of viral replication (MHV-nLuc), in words (MHV-nLuc virus): failed to inhibit viral replication | IC50 (MHV-nLuc virus): 10000 nM | His6-SARS-CoV-2 spike protein uptake [1]: no effect on spike protein uptake | entry of lentivirus pseudotyped with SARS-CoV-2 spike glycoprotein [2]: did not inhibit pseudoviral entry | # scanMAX kinases with PoC < 10 (403 WT human kinases): 1 | inhibition of SARS-CoV-2 replication, in words (SARS-CoV-2-nLuc; A549-ACE2 cells): did not inhibit SARS-CoV-2 replication | effect on cell viability in DBT cells (DBT cells): nontoxic up to 10 μM | entry of bald lentivirus (bald GFP lentivirus): entry of bald lentivirus was not impacted
